# Assay results taken from paper PMC11429051, “The Effect of Maturity Stage on Polyphenolic Composition, Antioxidant and Anti-Tyrosinase Activities of Ficus rubiginosa Desf. ex Vent. Extracts” (Antioxidants, 2024).
# Target: T1, mushroom tyrosinase
# T1 construct: gene PPO3
# Experiment: L-DOPA oxidation, absorbance at […] nm after […] min
# Type: biochemical
# Conditions: 0.1 M L-DOPA solution (300 µL in 610 µL assay), 0.05 M phosphate pH 6.8, room temperature, 10 min preincubation
structure (smiles),measurement,value
C[C@@H]1O[C@@H](OC[C@H]2O[C@@H](Oc3c(-c4ccc(O)c(O)c4)oc4cc(O)cc(O)c4c3=O)[C@H](O)[C@@H](O)[C@@H]2O)[C@H](O)[C@H](O)[C@H]1O [rutin],IC50,5.38 µg/mL
